Laboratory results as given in patent publication US8946234B2, “Halogen-substituted compounds” (Bayer CropScience AG, priority 2008, dated 2015).
Read-outs that look alike come from different tables or passages of the source.

Experiment: physchem
Type: physicochemical
Conditions: for chromatographic logP: read-out: logP
How it was run: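 Reversed-phase C18 HPLC (50×4.6 mm, 1.8 micron), 55 °C, 2.0 ml/min, acetonitrile/water with formic acid. Linear gradient 10% to 95% acetonitrile over 4.25 min, then 95% for 1.25 min. logP derived from retention per EEC Directive 79/831 Annex V.A8; MS detection.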

[1] = HPLC phase inversion (reversed-phase) C18 column, HPLC method a), eluent acetonitrile/water with formic acid

Compound | logP | further results
COc1ccc(NC(=O)c2c(C(F)(F)F)c(C(F)(F)C(F)(F)F)nn2C)cc1C(=O)NC1CC1 [Ik-185] | 3.32^a) | –
CCOC(=O)c1cnc(C(F)(F)C(F)(F)C(F)(F)F)nc1C(F)(F)F [Ethyl 2-(heptafluoropropyl)-4-(trifluoromethyl)pyrimidine-5-carboxylate] | – | chromatographic logP (HPLC method a), eluent acetonitrile/water with formic acid): 4.32
Cc1nc(C(F)(F)F)ncc1C(=O)Nc1ccc(Cl)c(C(=O)NCC(F)(F)F)c1 [Ib-20] | 2.65^a) | –
Cc1nc(C(F)(F)F)ncc1C(=O)O [4-Methyl-2-(trifluoromethyl)pyrimidine-5-carboxylic acid] | – | chromatographic logP [1]: 1.26
CC(NC(=O)c1cc(NC(=O)c2c(Cl)c(C(F)(F)F)nn2C)ccc1Cl)C(F)(F)F (stereo not shown) [Ik-152] | 3.44^a) | –
Cn1nc(C(F)(F)C(F)(F)F)c(C(F)(F)F)c1C(=O)Nc1cc(Br)cc(C(=O)NCc2ccccc2)c1 [Ik-222] | 4.35^a) | –
Cn1nc(C(F)(F)C(F)(F)F)c(C(F)(F)F)c1C(=O)Nc1cc(Br)c(Cl)c(C(=O)NCC(F)(F)F)c1 [Ik-178] | 4.14^a) | –
CCn1nc(C(F)(F)C(F)(F)F)c(C(F)(F)F)c1C(=O)Nc1ccc(Cl)c(C(=O)NCC(F)(F)F)c1 [Ik-216] | 3.93^a) | –
O=C(NCc1ccccc1)c1cc(NC(=O)c2cnc(C(F)(F)C(F)(F)F)nc2C(F)(F)C(F)(F)F)ccc1Cl [Ib-35] | 4.20^a) | –
Cn1nc(C(F)(Cl)C(F)(F)F)c(Br)c1C(=O)Nc1ccc(Cl)c(C(=O)NC2CC2)c1 (stereo not shown) [Ik-16] | 3.35^a) | –
O=C(NCC=CCl)c1cc(NC(=O)c2nccc(C(F)(F)F)c2Cl)ccc1Cl [Ie-4] | 2.92^a) | –
Cn1nc(C(F)(F)C(F)(F)F)c(C(F)(F)F)c1C(=O)Nc1ccc(I)c(C(=O)NC2CC2)c1 [Ik-183] | 3.45^a) | –
CCn1nc(C(F)(F)C(F)(F)F)c(C(F)(F)F)c1C(=O)O [1-Ethyl-3-(pentafluoroethyl)-4-(trifluoromethyl)-1H-pyrazole-5-carboxylic acid] | – | chromatographic logP [1]: 2.18
Cc1nc(C(F)(F)C(F)(F)F)nc(C)c1C(=O)Nc1ccc(Cl)c(C(=O)NCc2ccccc2)c1 [Ib-14] | 3.49^a) | –
Cn1nc(OCC(F)(F)F)c(Cl)c1C(=O)Nc1ccc(Cl)c(C(=O)NC2CC2)c1 [Ik-242] | 2.89^a) | –
O=C(NC1CC1)c1cc(NC(=O)c2nccc(C(F)(F)F)c2Cl)ccc1Cl [Ie-1] | 2.48^a) | –
Cc1nc(C(F)(F)C(F)(F)F)ncc1C(=O)Nc1ccc(Cl)c(C(=O)NCC=CCl)c1 [Ib-25] | 3.2^a) | –
Cn1nc(C(F)(F)C(F)(F)F)c(C(F)(F)F)c1C(=O)Nc1ccc(Cl)c(C(=O)OCC(=O)NC(N)=O)c1 [Ik-110] | 3.10^a) | –
Cn1nc(C(F)(F)C(F)(F)F)c(C(F)(F)F)c1C(=O)Nc1ccc([N+](=O)[O-])c(C(=O)NC2CC2)c1 [Ik-180] | 3.27^a) | –
Cn1nc(C(F)(F)C(F)(F)F)c(C(F)(F)F)c1C(=O)Nc1cc(Br)c(Cl)c(C(=O)NC2CC2)c1 [Ik-7] | 3.81^a) | –
CSc1c(F)cc(NC(=O)c2c(C(F)(F)F)c(C(F)(F)C(F)(F)F)nn2C)cc1C(=O)NCc1ccccc1 [Ik-192] | 4.15^a) | –

Compound | logP | further results
Cn1nc(C(F)(F)C(F)(F)F)c(C(F)(F)F)c1C(=O)Nc1cc(F)c(Br)c(C(=O)NCc2ccccc2)c1 [Ik-229] | 4.14^a) | –
COCn1nc(C(F)(F)C(F)(F)F)c(C(F)(F)F)c1C(=O)Nc1ccc(Cl)c(C(=O)NC2CC2)c1 [Ik-219] | 3.50^a) | –
CC(NC(=O)c1cc(NC(=O)c2c(Br)c(C(F)(F)C(F)(F)F)nn2C)ccc1Cl)C1CC1 (stereo not shown) [Ik-12] | 3.84^a) | –
Cn1nc(C(F)(F)F)c(Br)c1C(=O)Nc1ccc(Cl)c(C(=O)NCC=CCl)c1 [Ik-22] | 3.20^a) | –
CC(C)NC(=O)c1cc(NC(=O)c2c(C(F)(F)F)c(C(F)(F)C(F)(F)F)nn2C)ccc1Cl [Ik-90] | 3.60^a) | –
O=C(NCC=CCl)c1cc(NC(=O)c2cnc(C(F)(F)C(F)(F)C(F)(F)F)nc2C(F)(F)F)ccc1Cl [Ib-17] | 3.92^a) | –
Cn1nc(C(F)(F)C(F)(F)F)c(C(F)(F)F)c1C(=O)Nc1cc(F)c(Cl)c(C(=O)NCC(F)(F)F)c1 [Ik-190] | 3.91^a) | –
Cn1nc(C(F)F)c(C(F)(F)F)c1C(=O)Nc1ccc(Cl)c(C(=O)NC2CC2)c1 [Ik-231] | 2.46^a) | –
Cn1nc(C(F)(F)C(F)(F)F)c(C(F)(F)F)c1C(=O)Nc1cc(Cl)c(Br)c(C(=O)NCc2ccccc2)c1 [Ik-214] | 4.42^a) | –
CN(C(=O)c1cnc(C(F)(F)C(F)(F)F)nc1C(F)(F)F)c1ccc(Cl)c(C(=O)NC2CC2)c1 [Ib-38] | 3.23^a) | –
Cn1nc(C(F)(F)C(F)(F)C(F)(F)C(F)(F)F)c(I)c1C(=O)Nc1ccc(Cl)c(C(=O)NC2CCC2)c1 [Ik-268] | 4.16^a) | –
O=C(NC1CC1)c1cc(NC(=O)c2[nH]nc(C(F)(F)F)c2C(F)(F)F)ccc1Cl [Ik-197] | 2.55^a) | –
O=C(NCC=CCl)c1cc(NC(=O)c2cnc(C(F)(F)C(F)(F)F)nc2C(F)(F)F)ccc1Cl [Ib-10] | 3.59^a) | –
Cn1nc(C(F)(F)C(F)(F)F)c(C(F)(F)F)c1C(=O)Nc1ccc(Cl)c(C(=O)O)c1 [Ik-2, 2-Chloro-5-({[1-methyl-3-(pentafluoroethyl)-4-(trifluoromethyl)-1H-pyrazol-5-yl]carbonyl}amino)benzoic acid] | – | chromatographic logP [1]: 3.22; chromatographic logP (HPLC phase inversion (reversed-phase) C18 column, HPLC, method a)): 3.22
CCSCC(C)NC(=O)c1cc(NC(=O)c2c(C(F)(F)F)c(C(F)(F)C(F)(F)F)nn2C)ccc1Cl (stereo not shown) [Ik-89] | 4.09^a) | –
O=C(NCC(F)(F)F)c1cc(NC(=O)c2cnc(C(F)(F)C(F)(F)F)nc2C(F)(F)C(F)(F)F)ccc1Cl [Ib-34] | 3.94^a) | –
Cc1nc(C(F)(F)C(F)(F)F)nc(C)c1C(=O)O [4,6-Dimethyl-2-(pentafluoroethyl)pyrimidine-5-carboxylic acid] | – | chromatographic logP [1]: 1.63
Cn1nc(C(F)(F)C(F)(F)F)c(C(F)(F)F)c1C(=O)Nc1ccc(Br)c(C(=O)NCc2ccccc2)c1 [Ik-172] | 4.03^a) | –
CSc1c(Cl)cc(NC(=O)c2c(C(F)(F)F)c(C(F)(F)C(F)(F)F)nn2C)cc1C(=O)NCc1ccccc1 [Ik-202] | 4.39^a) | –
Cn1nc(C(F)(F)C(F)(F)F)c(C(F)(F)F)c1C(=O)Nc1cccc(C(=O)NC2CC2)c1 [Ik-13] | 3.15^a) | –
Cn1nc(C(F)(F)C(F)(F)F)c(C(F)(F)F)c1C(=O)Nc1cc(Br)c(Br)c(C(=O)NCC(F)(F)F)c1 [Ik-209] | 4.18^a) | –

Compound | logP | further results
Cn1nc(C(F)(F)C(F)(F)F)c(C(F)(F)F)c1C(=O)Nc1cc(Br)c(I)c(C(=O)NCC(F)(F)F)c1 [Ik-212] | 4.15^a) | –
O=C(NC1CC1)c1cc(NC(=O)c2c(C(F)(F)F)c(C(F)(F)C(F)(F)F)nn2-c2ccccc2)ccc1Cl [Ik-176] | 4.00^a) | –
Cn1nc(C(F)(F)C(F)(F)F)c(C(F)(F)F)c1C(=O)Nc1cc(F)c(F)c(C(=O)NCc2ccccc2)c1 [Ik-97] | 4.19^a) | –
Cn1nc(C(F)(F)C(F)(F)F)c(C(F)(F)F)c1C(=O)Nc1ccc(Cl)c(C(N)=O)c1 [Ik-163] | 2.83^a) | –
CSc1c(Br)cc(NC(=O)c2c(C(F)(F)F)c(C(F)(F)C(F)(F)F)nn2C)cc1C(=O)NC1CC1 [Ik-198] | 3.87^a) | –
Cc1nc(C(F)(F)F)ccc1C(=O)Nc1ccc(Cl)c(C(=O)NCC(F)(F)F)c1 [Ir-11] | 2.67^a) | –
Cn1nc(C(F)(F)C(F)(F)F)c(C(F)(F)F)c1C(=O)Nc1cc(Br)c(I)c(C(=O)NC2CC2)c1 [Ik-210] | 3.92^a) | –
Cn1nc(C(F)(F)C(F)(F)F)cc1C(=O)Nc1ccc(Cl)c(C(=O)NC2CC2)c1 [Ik-17] | 2.94^a) | –
Cc1nc(C(F)(F)F)ncc1C(=O)Nc1ccc(Cl)c(C(=O)NCc2ccccc2)c1 [Ib-22] | 2.94^a) | –
Cn1nc(C(F)(F)OC(F)(F)OC(F)(F)F)c(Br)c1C(=O)O [4-Bromo-3-{[(difluoro(trifluoromethoxy)methoxy](difluoro)methyl}-1-methyl-1H-pyrazole-5-carboxylic acid] | – | chromatographic logP [1]: 3.56
COCn1nc(C(F)(F)C(F)(F)F)c(C(F)(F)F)c1C(=O)Nc1ccc(Cl)c(C(=O)NCC(F)(F)F)c1 [Ik-220] | – | logP (HPLC on C18 phase inversion column, method a)): 3.82^a)
Cn1nc(C2CC2)c(C(F)(F)F)c1C(=O)Nc1ccc(Cl)c(C(=O)NC2CC2)c1 [Ik-261] | 2.78^a) | –
Cn1nc(-c2ccc(OC(F)(F)F)cc2)c(Br)c1C(=O)Nc1ccc(Cl)c(C(=O)NC2CC2)c1 [Ik-251] | 3.76^a) | –
Cn1nc(C(F)C2CC2)c(C(F)(F)F)c1C(=O)Nc1ccc(Cl)c(C(=O)NC2CC2)c1 (stereo not shown) [Ik-233, N-[4-Chloro-3-(cyclopropylcarbamoyl)phenyl]-3-[cyclopropyl(fluoro)methyl]-1-methyl-4-(trifluoromethyl)-1H-pyrazole-5-carboxamide] | – | chromatographic logP [1]: 2.76
O=C(NC1CC1)c1cc(NC(=O)c2[nH]nc(C(F)(F)C(F)(F)F)c2C(F)(F)F)ccc1Cl [Ik-179] | 2.95^a) | –
Cn1nc(C(F)(F)C(F)(F)F)c(C(F)(F)F)c1C(=O)Nc1cc(Br)c(Br)c(C(=O)NCc2ccccc2)c1 [Ik-208] | 4.42^a) | –
Cn1nc(C(F)(F)F)cc1C(=O)Nc1ccc(Cl)c(C(=O)NC2CC2)c1 [Ik-71] | 2.48^a) | –
Cn1nc(C(F)(F)C(F)(F)F)cc1C(=O)O [1-Methyl-3-pentafluoroethyl-1H-pyrazole-5-carboxylic acid] | – | chromatographic logP [1]: 2.08
CCN(C(=O)c1c(C(F)(F)F)c(C(F)(F)C(F)(F)F)nn1C)c1ccc(Cl)c(C(=O)NCC(F)(F)F)c1 [Ik-138] | 3.81^a) | –
Cn1nc(C(F)(F)C(F)(F)F)c(C(F)(F)F)c1C(=O)Nc1cc(C(=O)O)c(Br)cn1 [5-bromo-2-({[1-methyl-3-(pentafluoroethyl)-4-(trifluoromethyl)-1H-pyrazol-5-yl]carbonyl}amino)isonicotinic acid] | – | chromatographic logP [1]: 2.85
Cn1nc(C(F)(F)C(F)(F)F)c(C(F)(F)F)c1C(=O)Nc1ccc(Cl)c(C(=O)OCC(=O)NCO)c1 [Ik-115] | 2.93^a) | –
